{"source": "patent US20210108247A1", "about": "“CHEMOENZYMATIC SYNTHESIS OF TREHALOSE ANALOGUES” (Central Michigan University, priority 2014, published 2021)", "format_in_all_cases": "cell-based", "key": {"[1]": {"test_system": "M. smegmatis wild type", "assay": "Uptake of fluoro trehalose, GC-MS of cytosolic extracts", "details": "100 μM, 1 h, 37° C.", "method": "Cultures of M. smegmatis wild type, ΔsugC mutant, or ΔsugC::sugC complement were generated by inoculating a single colony from a freshly streaked agar plate (with appropriate antibiotic, if needed) into 3 mL Middlebrook 7H9 liquid medium supplemented with ADC (albumin, dextrose, and catalase), 0.5% glycerol, and 0.05% Tween-80 in a culture tube. Starter cultures were incubated at 37° C. with shaking until reaching log phase. Cells were then cultured at 37° C. in the presence or absence of 2-, 3-, 4-, or 6-fluoro trehalose (100 μM) in 7H9 liquid medium for 1 h, then centrifuged and washed (5000 rpm for 5 min) three times in ultrapure water. The washed cells were resuspended in ultrapure water and boiled for 4 h, then centrifuged. The supernatant was collected and dried on a speedvac to yield water-soluble cytosolic metabolites (e.g., trehalose and fluoro trehaloses, if present), which were subsequently trimethylsilyl (TMS)-derivatized using N-Methyl-N-(trimethylsilyl) trifluoroacetamide (MSTFA) in pyridine and analyzed by gas chromatography-mass spectrometry (GC-MS)."}, "[2]": {"test_system": "M. smegmatis wild type", "assay": "One-pot metabolic labeling and fluorescence imaging (CuAAC with alkyne fluorophore)", "details": "+TreT reaction mixture, 25 μM azido sugar, 4 h, 37° C."}, "[3]": {"test_system": "M. smegmatis ΔsugC mutant", "assay": "One-pot metabolic labeling and fluorescence imaging (CuAAC with alkyne fluorophore)", "details": "ΔsugC mutant missing the trehalose transporter; 25 μM, 4 h", "method": "One-Pot Metabolic Labeling and Imaging of M. smegmatis: Cultures of M. smegmatis wild type, ΔsugC mutant, or ΔsugC::sugC complement were generated by inoculating a single colony from a freshly streaked agar plate (with appropriate antibiotic, if needed) into 3 mL Middlebrook 7H9 liquid medium supplemented with ADC (albumin, dextrose, and catalase), 0.5% glycerol, and 0.05% Tween-80 in a culture tube. Starter cultures were incubated at 37° C. with shaking until reaching log phase. Meanwhile, using the procedure described above, a 50 μL TreT reaction employing 6-GlcAz (10 mM) as the substrate was carried out to synthesize 6-TreAz (+TreT sample). A control reaction lacking TreT was run in parallel (−TreT control). […] Given the observed quantitative conversion for this reaction (FIG. 1B, Entry 16), a 6-TreAz concentration of 10 mM was assumed in the +TreT sample. […] Fluorescence imaging was performed using a GFP LED light cube (maximum excitation/emission=470/510 nm). […]\nThe same experiments were performed in M. smegmatis ΔsugC, a mutant missing the trehalose transporter required for 6-TreAz uptake and labeling, as well as its complement, M. smegmatis ΔsugC::sugC. Fluorescence was abolished in the ΔsugC mutant and restored in the complement, confirming that 6-TreAz labeling proceeded via the trehalose transporter pathway."}, "[4]": {"test_system": "M. smegmatis ΔsugC::sugC complement", "assay": "One-pot metabolic labeling and fluorescence imaging (CuAAC with alkyne fluorophore)", "details": "25 μM, 4 h", "method": "One-Pot Metabolic Labeling and Imaging of M. smegmatis: Cultures of M. smegmatis wild type, ΔsugC mutant, or ΔsugC::sugC complement were generated by inoculating a single colony from a freshly streaked agar plate (with appropriate antibiotic, if needed) into 3 mL Middlebrook 7H9 liquid medium supplemented with ADC (albumin, dextrose, and catalase), 0.5% glycerol, and 0.05% Tween-80 in a culture tube. Starter cultures were incubated at 37° C. with shaking until reaching log phase. Meanwhile, using the procedure described above, a 50 μL TreT reaction employing 6-GlcAz (10 mM) as the substrate was carried out to synthesize 6-TreAz (+TreT sample). A control reaction lacking TreT was run in parallel (−TreT control). After incubation at 70° C. for 1 h, the reactions were stopped by placing on ice. Given the observed quantitative conversion for this reaction (FIG. 1B, Entry 16), a 6-TreAz concentration of 10 mM was assumed in the +TreT sample. For the −TreT control, a 6-GcAz concentration of 10 mM was assumed. The aqueous reaction mixtures were directly diluted into M. smegmatis wild type, ΔsugC mutant, or ΔsugC::sugC complement growing in 7H9 liquid medium to a final azido sugar concentration of 25 μM and a culture density of OD600=0.15. […] Fluorescence imaging was performed using a GFP LED light cube (maximum excitation/emission=470/510 nm). […]"}}, "data": [{"compound": "OC[C@H]1O[C@H](O[C@H]2O[C@H](CO)[C@@H](O)[C@H](O)[C@H]2F)[C@H](O)[C@@H](O)[C@@H]1O", "note": "[2-fluoro trehalose, 2-Deoxy-2-fluoro-α,α-D-trehalose]", "values": [{"measurement": "fluoro trehalose derivative in cytosolic extracts (uptake)", "setting": "[1]", "value": "observed in cytosolic extracts"}]}, {"compound": "OC[C@H]1O[C@H](O[C@H]2O[C@H](CO)[C@@H](O)[C@H](F)[C@H]2O)[C@H](O)[C@@H](O)[C@@H]1O", "note": "[3-fluoro trehalose, 3-Deoxy-3-fluoro-α,α-D-trehalose]", "values": [{"measurement": "fluoro trehalose derivative in cytosolic extracts (uptake)", "setting": "[1]", "value": "observed in cytosolic extracts"}]}, {"compound": "[N-]=[N+]=NC[C@H]1O[C@H](O[C@H]2O[C@H](CO)[C@@H](O)[C@H](O)[C@H]2O)[C@H](O)[C@@H](O)[C@@H]1O", "note": "[6-TreAz, 6-Azido-6-Deoxy-α,α-D-trehalose]", "values": [{"measurement": "fluorescence labeling of bacteria (fluorescence microscopy)", "setting": "[2]", "value": "strong labeling"}, {"measurement": "fluorescence labeling of bacteria (fluorescence microscopy)", "setting": "[3]", "value": "abolished"}, {"measurement": "fluorescence labeling of bacteria (fluorescence microscopy)", "setting": "[4]", "value": "restored"}]}, {"compound": "OC[C@H]1O[C@H](O[C@H]2O[C@H](CF)[C@@H](O)[C@H](O)[C@H]2O)[C@H](O)[C@@H](O)[C@@H]1O", "note": "[6-fluoro trehalose]", "values": [{"measurement": "fluoro trehalose derivative in cytosolic extracts (uptake)", "setting": "[1]", "value": "observed in cytosolic extracts"}]}]}
